CATDS and potency estimated from few doses data for 23 compounds are collected here from PMC11062922 (Nature Chemical Biology, 2023).

The structures appear in SMILES notation. Some results are limits rather than exact numbers.

One assay deals with ABL1 (Homo sapiens, UniProt P00519). The experiment in a line: Kinobeads two-dose competition binding: ABL1. The conditions noted are these: sheet CATDS matrix 2; Gene Name ABL1.
A further assay concerns the target T1, AAK1 (Homo sapiens, UniProt Q2M2I8).
T1 construct: to maximize the representation of endogenous proteins; endogenous in cells
The experiment in a line: Kinobeads two-dose competition binding: AAK1.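 As to all read-outs here: kinobeads competition pulldown from cell lysate, compound preincubated 45 min at 4 °C, bead-bound protein measured by label-free mass spectrometry against DMSO vehicle control.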 The conditions noted are these: for CATDS: sheet CATDS matrix 2, Gene Name AAK1; for potency estimated from few doses: sheet "Kinobeads Drugmatrix - all", unit inferred, same values below 1000 recur in sheet "nanomolar", read-out: Kinobeads Drugmatrix - all: apparent Kd, AAK1.

Another assay deals with T2, ACAD11 (Homo sapiens, UniProt Q709F0).
T2 construct: endogenous in cells
T2 sequence (Q709F0 1-780): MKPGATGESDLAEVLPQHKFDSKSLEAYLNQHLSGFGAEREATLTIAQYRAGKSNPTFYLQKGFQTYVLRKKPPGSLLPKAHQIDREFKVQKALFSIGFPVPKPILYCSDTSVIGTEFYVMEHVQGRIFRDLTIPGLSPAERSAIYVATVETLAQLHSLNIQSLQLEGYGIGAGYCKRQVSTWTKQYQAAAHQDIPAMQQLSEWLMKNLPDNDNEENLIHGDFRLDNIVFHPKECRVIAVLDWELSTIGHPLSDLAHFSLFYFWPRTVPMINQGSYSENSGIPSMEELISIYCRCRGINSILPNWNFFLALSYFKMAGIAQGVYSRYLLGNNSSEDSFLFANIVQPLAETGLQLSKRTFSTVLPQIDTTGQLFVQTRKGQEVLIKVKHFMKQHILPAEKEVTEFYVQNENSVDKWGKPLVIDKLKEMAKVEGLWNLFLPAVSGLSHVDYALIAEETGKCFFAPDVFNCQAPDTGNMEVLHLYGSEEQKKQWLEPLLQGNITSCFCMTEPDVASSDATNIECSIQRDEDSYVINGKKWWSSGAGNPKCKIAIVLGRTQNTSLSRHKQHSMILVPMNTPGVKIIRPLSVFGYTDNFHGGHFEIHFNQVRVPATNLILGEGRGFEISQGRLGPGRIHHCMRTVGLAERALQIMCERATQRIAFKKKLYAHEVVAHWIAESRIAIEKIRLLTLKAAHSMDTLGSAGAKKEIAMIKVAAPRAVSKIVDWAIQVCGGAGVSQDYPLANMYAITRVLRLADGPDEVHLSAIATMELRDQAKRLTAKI
The experiment in a line: Kinobeads two-dose competition binding: ACAD11. As to conditions: sheet CATDS matrix 2; Gene Name ACAD11.

The next assay concerns the target T3, ACOX1 (Homo sapiens, UniProt Q15067).
T3 construct: endogenous in cells
T3 sequence (Q15067 1-660): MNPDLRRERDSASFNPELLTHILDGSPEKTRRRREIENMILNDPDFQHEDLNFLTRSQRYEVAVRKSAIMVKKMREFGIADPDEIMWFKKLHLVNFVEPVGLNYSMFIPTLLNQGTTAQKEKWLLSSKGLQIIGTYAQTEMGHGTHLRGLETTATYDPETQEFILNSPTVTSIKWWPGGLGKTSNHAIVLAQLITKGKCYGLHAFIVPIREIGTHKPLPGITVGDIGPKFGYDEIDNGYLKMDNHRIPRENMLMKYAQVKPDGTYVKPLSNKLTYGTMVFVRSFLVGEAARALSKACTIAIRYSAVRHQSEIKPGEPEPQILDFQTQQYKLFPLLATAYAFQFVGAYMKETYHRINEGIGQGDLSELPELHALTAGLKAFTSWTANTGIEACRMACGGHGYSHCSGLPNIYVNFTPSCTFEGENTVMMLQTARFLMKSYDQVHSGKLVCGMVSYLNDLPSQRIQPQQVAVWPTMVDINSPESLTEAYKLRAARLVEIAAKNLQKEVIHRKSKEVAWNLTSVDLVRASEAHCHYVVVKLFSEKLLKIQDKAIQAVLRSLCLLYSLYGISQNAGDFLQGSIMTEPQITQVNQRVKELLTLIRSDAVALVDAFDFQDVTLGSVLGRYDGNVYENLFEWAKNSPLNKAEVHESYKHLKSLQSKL
The experiment in a line: Kinobeads two-dose competition binding: ACOX1.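 Also: competition of compounds with immobilized broad-spectrum kinase inhibitor beads in cell lysate at 100 and 1,000 nM, 45 min at 4 °C, bead-bound protein quantified by label-free MS versus DMSO.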 As to conditions: sheet CATDS matrix 2; Gene Name ACOX1.

Another assay addresses T4, ABL2 (Homo sapiens, UniProt P42684).
T4 construct: endogenous in cells
The experiment in a line: Kinobeads two-dose competition binding: ABL2. As to conditions: sheet CATDS matrix 2; Gene Name ABL2.

ABL1, sequence (P00519 28-1130 limits assumed): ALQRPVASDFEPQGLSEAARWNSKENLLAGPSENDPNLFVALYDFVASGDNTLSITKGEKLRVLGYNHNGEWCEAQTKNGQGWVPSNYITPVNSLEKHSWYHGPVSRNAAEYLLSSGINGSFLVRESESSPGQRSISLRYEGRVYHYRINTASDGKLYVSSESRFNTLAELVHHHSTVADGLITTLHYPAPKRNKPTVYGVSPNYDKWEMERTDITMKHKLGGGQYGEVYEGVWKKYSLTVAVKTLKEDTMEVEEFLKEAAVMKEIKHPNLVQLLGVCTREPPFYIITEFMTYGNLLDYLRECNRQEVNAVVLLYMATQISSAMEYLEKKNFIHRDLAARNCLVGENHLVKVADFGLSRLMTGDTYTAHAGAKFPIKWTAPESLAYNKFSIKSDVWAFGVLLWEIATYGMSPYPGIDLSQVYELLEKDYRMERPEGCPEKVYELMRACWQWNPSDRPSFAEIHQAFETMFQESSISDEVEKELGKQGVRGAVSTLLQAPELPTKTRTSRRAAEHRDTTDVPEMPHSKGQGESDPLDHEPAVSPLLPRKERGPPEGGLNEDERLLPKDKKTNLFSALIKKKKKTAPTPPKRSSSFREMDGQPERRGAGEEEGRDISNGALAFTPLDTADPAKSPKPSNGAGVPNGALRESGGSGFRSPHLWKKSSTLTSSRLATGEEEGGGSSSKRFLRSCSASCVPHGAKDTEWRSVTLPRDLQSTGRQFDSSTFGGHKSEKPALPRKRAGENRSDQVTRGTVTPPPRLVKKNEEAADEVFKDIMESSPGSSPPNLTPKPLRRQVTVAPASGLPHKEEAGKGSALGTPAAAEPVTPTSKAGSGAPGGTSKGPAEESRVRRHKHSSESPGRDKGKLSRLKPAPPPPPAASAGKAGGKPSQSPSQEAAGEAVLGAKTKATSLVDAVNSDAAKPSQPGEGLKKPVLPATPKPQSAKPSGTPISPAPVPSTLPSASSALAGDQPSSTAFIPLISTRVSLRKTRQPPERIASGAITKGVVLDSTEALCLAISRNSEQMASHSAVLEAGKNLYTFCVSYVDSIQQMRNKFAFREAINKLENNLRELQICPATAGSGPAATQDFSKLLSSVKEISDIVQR
T1 sequence (Q2M2I8 whole entry): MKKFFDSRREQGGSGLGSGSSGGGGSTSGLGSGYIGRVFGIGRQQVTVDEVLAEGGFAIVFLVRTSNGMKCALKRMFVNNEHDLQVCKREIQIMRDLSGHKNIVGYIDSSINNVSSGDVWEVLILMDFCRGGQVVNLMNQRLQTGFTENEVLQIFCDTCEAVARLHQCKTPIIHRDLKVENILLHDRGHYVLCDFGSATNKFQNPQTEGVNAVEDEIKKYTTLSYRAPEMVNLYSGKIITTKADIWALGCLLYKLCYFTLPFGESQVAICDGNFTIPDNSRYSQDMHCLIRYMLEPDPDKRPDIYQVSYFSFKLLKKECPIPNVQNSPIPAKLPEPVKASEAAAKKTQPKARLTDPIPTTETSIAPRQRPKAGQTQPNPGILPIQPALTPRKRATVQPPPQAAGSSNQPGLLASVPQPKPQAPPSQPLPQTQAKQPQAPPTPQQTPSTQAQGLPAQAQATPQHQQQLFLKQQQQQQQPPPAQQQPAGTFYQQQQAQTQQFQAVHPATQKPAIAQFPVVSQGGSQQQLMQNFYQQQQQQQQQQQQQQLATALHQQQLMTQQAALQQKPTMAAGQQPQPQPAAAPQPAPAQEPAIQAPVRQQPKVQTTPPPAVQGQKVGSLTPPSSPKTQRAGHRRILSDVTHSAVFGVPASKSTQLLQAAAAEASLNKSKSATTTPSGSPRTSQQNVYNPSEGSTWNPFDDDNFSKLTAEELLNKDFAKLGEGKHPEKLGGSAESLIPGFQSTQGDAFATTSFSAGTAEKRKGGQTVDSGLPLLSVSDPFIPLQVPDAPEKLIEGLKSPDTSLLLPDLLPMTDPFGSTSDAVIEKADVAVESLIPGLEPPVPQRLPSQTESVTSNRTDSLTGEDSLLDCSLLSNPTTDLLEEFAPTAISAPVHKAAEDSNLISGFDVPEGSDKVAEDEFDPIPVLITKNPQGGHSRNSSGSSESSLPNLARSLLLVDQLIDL
T4 sequence (P42684 whole entry): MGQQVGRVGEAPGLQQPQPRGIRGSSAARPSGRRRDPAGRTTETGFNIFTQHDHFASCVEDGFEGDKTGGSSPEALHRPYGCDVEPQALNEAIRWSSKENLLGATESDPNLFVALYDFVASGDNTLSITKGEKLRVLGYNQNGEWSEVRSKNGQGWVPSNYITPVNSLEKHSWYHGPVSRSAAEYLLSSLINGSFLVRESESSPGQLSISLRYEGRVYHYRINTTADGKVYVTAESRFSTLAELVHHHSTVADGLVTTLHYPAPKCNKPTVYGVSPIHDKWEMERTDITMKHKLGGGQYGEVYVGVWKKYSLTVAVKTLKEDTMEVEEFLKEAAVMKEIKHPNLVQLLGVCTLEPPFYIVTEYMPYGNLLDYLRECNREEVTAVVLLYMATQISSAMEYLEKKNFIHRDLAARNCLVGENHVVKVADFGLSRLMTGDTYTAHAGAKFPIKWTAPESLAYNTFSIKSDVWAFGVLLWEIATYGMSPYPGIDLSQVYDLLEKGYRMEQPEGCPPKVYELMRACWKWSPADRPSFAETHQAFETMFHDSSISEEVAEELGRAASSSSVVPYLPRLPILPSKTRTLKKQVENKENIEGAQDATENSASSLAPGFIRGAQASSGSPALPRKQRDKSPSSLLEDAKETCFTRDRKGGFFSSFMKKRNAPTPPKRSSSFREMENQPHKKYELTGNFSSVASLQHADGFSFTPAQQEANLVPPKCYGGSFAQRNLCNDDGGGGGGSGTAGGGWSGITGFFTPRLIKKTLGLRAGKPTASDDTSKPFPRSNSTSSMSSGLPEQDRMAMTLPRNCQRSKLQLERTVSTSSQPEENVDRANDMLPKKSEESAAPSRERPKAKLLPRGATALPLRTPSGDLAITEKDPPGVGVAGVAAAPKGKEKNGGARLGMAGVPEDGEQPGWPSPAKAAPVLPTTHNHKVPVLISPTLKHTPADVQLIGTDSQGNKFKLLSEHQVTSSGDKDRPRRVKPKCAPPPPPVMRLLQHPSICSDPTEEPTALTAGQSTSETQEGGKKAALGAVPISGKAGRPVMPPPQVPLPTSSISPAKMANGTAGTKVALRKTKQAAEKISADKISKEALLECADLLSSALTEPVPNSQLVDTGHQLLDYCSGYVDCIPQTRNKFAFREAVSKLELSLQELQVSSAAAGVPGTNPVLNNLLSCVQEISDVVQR

On to `CCCS(=O)(=O)Nc1ccc(F)c(-n2cc(-c3cncc(OC)c3)nn2)c1F` [BI00865461], for which the CATDS at ABL1, at AAK1, on ACAD11, at ACOX1 and on ABL2 was 0 in each case.

For `COc1cc(Nc2nccc(N3CCC(NC(=O)c4cccc(NC(C)=O)c4)C3)n2)cc(OC)c1OC` (stereo not shown) [GSK1379754A], the CATDS amounted to 0 at ABL1; 0.1752 on AAK1; 0 at ACAD11; 0 at ACOX1; 0 on ABL2. Also, the potency estimated from few doses at AAK1 was 410 nM.

In the case of `COc1cc(Nc2nccc(N3CCC(NC(=O)Nc4cccc(C(C)=O)c4)C3)n2)cc(OC)c1OC` (stereo not shown) [GSK1379753A], the CATDS on ABL1, at AAK1, at ACAD11, on ACOX1 and at ABL2 was 0 throughout.

With `COc1cc2ncnc(Nc3cccc(Cl)c3F)c2cc1O[C@H]1CC[C@H]([C@@H]2NCCNC2=O)CC1` [BI00133844], the CATDS at ABL1, on AAK1, at ACAD11, at ACOX1 and on ABL2 was 0 in each case.

Consider `CN(C)C(=O)O[C@H]1CN[C@H](C#Cc2cc3ncnc(Nc4ccc(OCc5cccc(F)c5)c(Cl)c4)c3s2)C1` [GSK182497A], for which the CATDS on ABL1, on AAK1, on ACAD11, on ACOX1 and on ABL2 was 0 throughout.

Turning to `Nc1nc(-c2ccc3c(N)n[nH]c3c2)cc(N2CCCC(NC(=O)c3ccccc3)C2)n1` (stereo not shown) [GSK2286775B], the CATDS worked out at 0 at ABL1; 0.05355 on AAK1; 0 at ACAD11; 0 on ACOX1; 0 at ABL2.

As for `COc1cc(N2CCN(C(C)C)CC2)ccc1Nc1nc(Nc2cccc3ncccc23)c2cc[nH]c2n1` [GSK1511931A], the CATDS on ABL1, at AAK1, on ACAD11, at ACOX1 and at ABL2 was 0 in each case.

Consider `C=CC(=O)Nc1cc(-n2c(=O)ccc3cnc4ccc(-c5ccc(NS(C)(=O)=O)cc5)cc4c32)ccc1C` [BMX-IN-1], for which the CATDS at ABL1, at AAK1, on ACAD11, on ACOX1 and at ABL2 was 0 in each case.

Consider `COc1ccc(Nc2nccc(N3CCC(NC(=O)C(C)c4ccc(Cl)cc4)C3)n2)cc1` (stereo not shown) [GSK1379735A], for which the CATDS on ABL1, on AAK1, at ACAD11, at ACOX1 and on ABL2 was 0 each time.

On to `CCNCC(Cc1ccccc1)NC(=O)c1cc(Br)c(-c2ccnc3[nH]ccc23)s1` (stereo not shown) [GSK1383280A], for which the CATDS at ABL1, at AAK1, at ACAD11, on ACOX1 and on ABL2 was 0 in each case.

For the compound `NCCC(NC(=O)c1cc(Br)c(-c2ccnc3[nH]ccc23)s1)c1ccccc1` (stereo not shown) [GSK1307810A], the CATDS at ABL1, on AAK1, at ACAD11, on ACOX1 and on ABL2 was 0 throughout.

Consider `NCC(NC(=O)c1cc(-c2cn[nH]c2)c(-c2ccnc3[nH]ccc23)s1)c1ccccc1` (stereo not shown) [GSK1325775A], for which the CATDS at ABL1, on AAK1, at ACAD11, on ACOX1 and on ABL2 was 0 each time. Besides, the potency estimated from few doses at AAK1 is more than 1000 nM.

Consider `O=C(NCCNc1ccnc(NCc2ccc(F)cc2)n1)c1cc2ccccc2s1` [GSK1379944A], for which the CATDS at ABL1, on AAK1, on ACAD11, on ACOX1 and on ABL2 was 0 in each case.

In the case of `Fc1ccc(-c2nc3n(c2-c2ccncc2)CCS3)cc1` [GI98581X], the CATDS at ABL1, on AAK1, at ACAD11, at ACOX1 and at ABL2 was 0 in each case.

`COc1cc(N2CCC(N3CCN(C)CC3)CC2)ccc1Nc1ncc(Cl)c(Nc2ccccc2P(C)(C)=O)n1` [Brigatinib, reference compound]: the CATDS was 0 at ABL1; 0.01731 at AAK1; 0 at ACAD11; 0 at ACOX1; 0 on ABL2.

Take `NC(=O)c1cccnc1COc1cc(-c2ccc(N3CCOCC3)nc2)cc2ncccc12` [BI01125081]: the CATDS on ABL1, at AAK1, on ACAD11, at ACOX1 and on ABL2 was 0 each time.

For `Cc1ccccc1Cn1ccn2c(=O)cc(N3CCOCC3)nc12` [GSK2269905A], the CATDS on ABL1, at AAK1, at ACAD11, on ACOX1 and on ABL2 was 0 throughout.

Regarding `CC(C)Nc1cc(-c2ccc3c(N)n[nH]c3c2)nc(N)n1` [GSK2221681A], the CATDS on ABL1 is given as 0; on AAK1, 0.2807; at ACAD11, 0; at ACOX1, 0; on ABL2, 0. The potency estimated from few doses at AAK1 was 149 nM.

As for `COc1cc2ncnc(Nc3ccc(F)c(Cl)c3)c2cc1O[C@H]1CC[C@H](N)CC1` [BIBW3133BS], the CATDS on ABL1, at AAK1, at ACAD11, at ACOX1 and at ABL2 was 0 each time.

In the case of `Cc1cn2c(=O)cc(N3CCOCC3)nc2n1Cc1cccc(Cl)c1Cl` [GSK2334006A], the CATDS on ABL1, on AAK1, at ACAD11, on ACOX1 and on ABL2 was 0 throughout.

For the compound `O=C(NCCNc1ccnc(Nc2ccc(F)cc2)n1)Nc1ccccc1F` [GSK1379880A], the CATDS at ABL1, on AAK1, at ACAD11, at ACOX1 and at ABL2 was 0 in each case.

For `COc1ccc(Nc2nccc(N3CCC(NC(=O)c4cccc(NC(C)=O)c4)C3)n2)cc1` (stereo not shown) [GSK1379732A], the CATDS at ABL1, at AAK1, on ACAD11, on ACOX1 and at ABL2 was 0 in each case.

With `CNC(=O)c1ncccc1Nc1nc(Nc2cc3c(cc2OC)CCCN3C(=O)CN(C)C)nc2[nH]ccc12` [GSK2220400A], the CATDS on ABL1, on AAK1, on ACAD11, on ACOX1 and on ABL2 was 0 throughout.
